Measured values taken from the NIST ThermoML archive (doi:10.1016/j.jct.2012.02.007).

Test: mn = molality of the nth substance listed, in mol/kg
Settings: 101.3 kPa, Liquid; for speed of sound: Sing-around technique in a fixed-path interferometer; for mass density: Vibrating tube method

CCCCn1cc[n+](C)c1.N#CN=C=[N-] [1-butyl-3-methylimidazolium dicyanamide] + CC(C)O
Settings	mass density, 293.15 K [kg/m3]	mass density, 308.15 K [kg/m3]	speed of sound, 293.15 K [m/s]	speed of sound, 308.15 K [m/s]
m1 = 0.0497	788.07	775.35	1163.1	1110.6
m1 = 0.1012	790.54	777.9	1167.4	1115.4
m1 = 0.1541	793.01	780.44	1171.9	1120.2
m1 = 0.2003	795.12	782.61	1175.6	1124.1
m1 = 0.2521	797.4	784.94	1179.7	1128.4
m1 = 0.5105	808.27	796.04	1199.3	1148.9
m1 = 0.7616	817.89	805.84	1216.7	1167
m1 = 1.016	826.92	–	1233.3	1184.4
m1 = 1.264	835.03	–	1248.4	1200
m1 = 1.523	843.01	–	1263.4	1215.6
m1 = 1.784	850.52	–	1278	1230.6
m1 = 2.022	856.61	–	1289.6	1242.8
m1 = 2.519	868.38	–	1312.7	1266.6
m1 = 3.014	878.91	–	1333.7	1288.3
m1 = 3.553	889.91	–	1356	1311.2
